Assay results published in PubChem BioAssay (NCI).
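Abbreviation: GI50, concentration required for 50% inhibition of growth. The concentration for full growth arrest is given as TGI.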

What was measured:
Test in all cases: growth of human tumour cells (NCI), 384-well format
OVCAR-3 ovarian = test system: OVCAR-3 ovarian
HL-60(TB) leukemia = test system: HL-60(TB) leukemia
NCI-H460 NSCLC = test system: NCI-H460 NSCLC
BT-549 breast = test system: BT-549 breast
UACC-257 melanoma = test system: UACC-257 melanoma
PC-3 prostate = test system: PC-3 prostate
SR leukemia = test system: SR leukemia
SF-539 CNS = test system: SF-539 CNS
HS 578T breast = test system: HS 578T breast
MDA-MB-468 breast = test system: MDA-MB-468 breast
CAKI-1 renal = test system: CAKI-1 renal
OVCAR-8 ovarian = test system: OVCAR-8 ovarian
SNB-75 CNS = test system: SNB-75 CNS
SF-295 CNS = test system: SF-295 CNS
OVCAR-4 ovarian = test system: OVCAR-4 ovarian
HCC-2998 colon = test system: HCC-2998 colon
OVCAR-5 ovarian = test system: OVCAR-5 ovarian
TK-10 renal = test system: TK-10 renal
A549 NSCLC = test system: A549 NSCLC
SNB-19 CNS = test system: SNB-19 CNS
NCI/ADR-RES ovarian = test system: NCI/ADR-RES ovarian
KM12 colon = test system: KM12 colon
HOP-92 NSCLC = test system: HOP-92 NSCLC
SF-268 CNS = test system: SF-268 CNS
A498 renal = test system: A498 renal
LOX IMVI melanoma = test system: LOX IMVI melanoma
MDA-MB-231 breast = test system: MDA-MB-231 breast
MOLT-4 leukemia = test system: MOLT-4 leukemia
MDA-MB-435 melanoma = test system: MDA-MB-435 melanoma
DU-145 prostate = test system: DU-145 prostate
SK-MEL-5 melanoma = test system: SK-MEL-5 melanoma
NCI-H522 lung = test system: NCI-H522 lung
SN12C renal = test system: SN12C renal
HOP-62 NSCLC = test system: HOP-62 NSCLC
U251 glioblastoma = test system: U251 glioblastoma
NCI-H226 lung = test system: NCI-H226 lung
NCI-H322M lung = test system: NCI-H322M lung
MCF7 breast = test system: MCF7 breast
HT29 colon = test system: HT29 colon
SK-OV-3 ovarian = test system: SK-OV-3 ovarian
SK-MEL-28 melanoma = test system: SK-MEL-28 melanoma
T-47D breast = test system: T-47D breast
COLO 205 colon = test system: COLO 205 colon
HCT-116 colon = test system: HCT-116 colon
ACHN renal = test system: ACHN renal
RPMI-8226 leukemia = test system: RPMI-8226 leukemia
EKVX NSCLC = test system: EKVX NSCLC
IGROV1 ovarian = test system: IGROV1 ovarian
HCT-15 colon = test system: HCT-15 colon

`FC(F)c1nc2ccccc2n1-c1nc(N2CCOCC2)nc(N2CCOCC2)n1` gave a GI50 (OVCAR-3 ovarian) of 174 nM, a TGI (OVCAR-3 ovarian) of 1080 nM and a GI50 (HL-60(TB) leukemia) of 138 nM. The TGI (HL-60(TB) leukemia) was 896 nM, the GI50 (NCI-H460 NSCLC) was 224 nM and the TGI (NCI-H460 NSCLC) was 2140 nM. The GI50 (BT-549 breast) was 207 nM, the TGI (BT-549 breast) was 1790 nM and the GI50 (UACC-257 melanoma) was 278 nM. It also gave a TGI (UACC-257 melanoma) of 4260 nM, a GI50 (PC-3 prostate) of 56 nM and a TGI (PC-3 prostate) of 825 nM. The GI50 (SR leukemia) was 147 nM, the TGI (SR leukemia) was 896 nM and the GI50 (SF-539 CNS) was 475 nM. For the same molecule, the TGI (SF-539 CNS) was over 100000 nM, the GI50 (HS 578T breast) was 202 nM and the TGI (HS 578T breast) was 2140 nM. The GI50 (MDA-MB-468 breast) was 202 nM, the TGI (MDA-MB-468 breast) was 2090 nM and the GI50 (CAKI-1 renal) was 216 nM. The TGI (CAKI-1 renal) was over 100000 nM, the GI50 (OVCAR-8 ovarian) was 641 nM and the TGI (OVCAR-8 ovarian) was over 100000 nM. It also gave a GI50 (SNB-75 CNS) of 154 nM, a TGI (SNB-75 CNS) of 13900 nM and a GI50 (SF-295 CNS) of 250 nM. It also gave a TGI (SF-295 CNS) of 2370 nM, a GI50 (OVCAR-4 ovarian) of 25.2 nM and a TGI (OVCAR-4 ovarian) of 1530 nM. For the same molecule, the GI50 (HCC-2998 colon) was 23.1 nM, the TGI (HCC-2998 colon) was 2120 nM and the GI50 (OVCAR-5 ovarian) was 133 nM. It also gave a TGI (OVCAR-5 ovarian) of 759 nM, a GI50 (TK-10 renal) of 224 nM and a TGI (TK-10 renal) of 1740 nM. For the same molecule, the GI50 (A549 NSCLC) was 645 nM, the TGI (A549 NSCLC) was over 100000 nM and the GI50 (SNB-19 CNS) was 3370 nM. The TGI (SNB-19 CNS) was over 100000 nM, the GI50 (NCI/ADR-RES ovarian) was 507 nM and the TGI (NCI/ADR-RES ovarian) was over 100000 nM. It also gave a GI50 (KM12 colon) of 1400 nM, a TGI (KM12 colon) of over 100000 nM and a GI50 (HOP-92 NSCLC) of 303 nM. For the same molecule, the TGI (HOP-92 NSCLC) was over 100000 nM, the GI50 (SF-268 CNS) was 1540 nM and the TGI (SF-268 CNS) was over 100000 nM. The GI50 (A498 renal) was 101 nM, the TGI (A498 renal) was 351 nM and the GI50 (LOX IMVI melanoma) was 598 nM. The TGI (LOX IMVI melanoma) was 4150 nM, the GI50 (MDA-MB-231 breast) was 957 nM and the TGI (MDA-MB-231 breast) was over 100000 nM. For the same molecule, the GI50 (MOLT-4 leukemia) was 166 nM, the TGI (MOLT-4 leukemia) was 716 nM and the GI50 (MDA-MB-435 melanoma) was 918 nM. The TGI (MDA-MB-435 melanoma) was 4750 nM, the GI50 (DU-145 prostate) was 352 nM and the TGI (DU-145 prostate) was 2390 nM. For the same molecule, the GI50 (SK-MEL-5 melanoma) was 191 nM, the TGI (SK-MEL-5 melanoma) was 1290 nM and the GI50 (NCI-H522 lung) was 198 nM. It also gave a TGI (NCI-H522 lung) of 894 nM, a GI50 (SN12C renal) of 19.8 nM and a TGI (SN12C renal) of 380 nM. It also gave a GI50 (HOP-62 NSCLC) of 420 nM, a TGI (HOP-62 NSCLC) of 3960 nM and a GI50 (U251 glioblastoma) of 1230 nM. It also gave a TGI (U251 glioblastoma) of over 100000 nM, a GI50 (NCI-H226 lung) of 324 nM and a TGI (NCI-H226 lung) of 3020 nM. The GI50 (NCI-H322M lung) was 281 nM, the TGI (NCI-H322M lung) was 1980 nM and the GI50 (MCF7 breast) was 84.3 nM. It also gave a TGI (MCF7 breast) of over 100000 nM, a GI50 (HT29 colon) of 454 nM and a TGI (HT29 colon) of over 100000 nM. It also gave a GI50 (SK-OV-3 ovarian) of 282 nM, a TGI (SK-OV-3 ovarian) of 5000 nM and a GI50 (SK-MEL-28 melanoma) of 402 nM. It also gave a TGI (SK-MEL-28 melanoma) of over 100000 nM, a GI50 (T-47D breast) of 171 nM and a TGI (T-47D breast) of 5380 nM. The GI50 (COLO 205 colon) was 246 nM, the TGI (COLO 205 colon) was 1980 nM and the GI50 (HCT-116 colon) was 1350 nM. For the same molecule, the TGI (HCT-116 colon) was over 100000 nM, the GI50 (ACHN renal) was 187 nM and the TGI (ACHN renal) was 1410 nM. The GI50 (RPMI-8226 leukemia) was 172 nM, the TGI (RPMI-8226 leukemia) was 608 nM and the GI50 (EKVX NSCLC) was 169 nM. For the same molecule, the TGI (EKVX NSCLC) was 1550 nM, the GI50 (IGROV1 ovarian) was 44 nM and the TGI (IGROV1 ovarian) was 237 nM. The GI50 (HCT-15 colon) was 330 nM and the TGI (HCT-15 colon) was over 100000 nM.
